Laboratory results taken from patent US11976083B2, “Inhibitors of peptidylarginine deiminases” (Gilead Sciences, Inc., priority 2020, dated 2024).

target: T1, human PAD4 (Homo sapiens, UniProt Q9UM07); assay: In vitro PAD4 BAEE biochemical assay; settings: BAEE substrate 3 mM, 5 nM PAD4, 2 mM calcium chloride; geometric mean of multiple experiments
T1 construct: human PAD4 (NM_012387), A2-P663, was PCR amplified; His-SUMO (N, cleaved yes); made in house; host or cells: E. coli BL21(DE3)
Procedure, shortened: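 Fluorescence read-out (ex 405/em 535 nm) of isoindole formed from ammonia, o-phthalaldehyde and DTT after EDTA stop. Reaction: 5 nM PAD4, 2 mM CaCl2, 3 mM BAEE, 2 h, 25 °C, after 30 min enzyme–compound preincubation. Normalised to BB-Cl-Amidine (50 µM) and DMSO controls.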

T1 sequence (Q9UM07 2-663): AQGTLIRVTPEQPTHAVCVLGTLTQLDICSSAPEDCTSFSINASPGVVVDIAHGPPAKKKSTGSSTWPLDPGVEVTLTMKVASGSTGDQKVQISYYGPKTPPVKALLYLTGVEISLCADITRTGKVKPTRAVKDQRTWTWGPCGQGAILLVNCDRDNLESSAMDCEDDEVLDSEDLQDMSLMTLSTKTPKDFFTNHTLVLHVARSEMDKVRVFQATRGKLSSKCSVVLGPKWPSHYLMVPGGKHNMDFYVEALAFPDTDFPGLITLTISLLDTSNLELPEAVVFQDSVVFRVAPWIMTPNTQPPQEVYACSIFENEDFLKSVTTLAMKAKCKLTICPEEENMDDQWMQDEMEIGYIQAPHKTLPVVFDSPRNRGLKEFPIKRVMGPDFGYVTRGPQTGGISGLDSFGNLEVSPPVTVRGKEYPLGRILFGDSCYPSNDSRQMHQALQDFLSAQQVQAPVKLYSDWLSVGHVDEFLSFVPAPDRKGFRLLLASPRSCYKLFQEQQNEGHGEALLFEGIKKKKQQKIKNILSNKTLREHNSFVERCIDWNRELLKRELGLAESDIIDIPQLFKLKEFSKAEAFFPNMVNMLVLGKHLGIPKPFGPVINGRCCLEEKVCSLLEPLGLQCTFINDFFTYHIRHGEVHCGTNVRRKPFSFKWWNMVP

SMILES	IC50
COc1cc(C(=O)N2CCC[C@@H](N)C2)cc2nc(-c3cc4ccc5nc4n3CCCCCCNC(=O)c3cccc(C)c3-5)n(C)c12 [Example 57, 17-[5-[(3~{R})-3-aminopiperidine-1-carbonyl]-7-methoxy-1-methyl-benzimidazol-2-yl]-3-methyl-9,16,22-triazatetracyclo[14.5.2.0^{2,7}.0^{19,23}] tricosa-1(22),2,4,6,17,19(23),20-heptaen-8-one]	213 nM
COc1cc(C(=O)N2CCC[C@@H](N)C2)cc2nc(-c3cc4ccc5nc4n3CCCCCc3ccccc3C(=O)N[C@@H]5C)n(C)c12 [Example 28, (2~{R})-17-[5-[(3~{R})-3-aminopiperidine-1-carbonyl]-7-methoxy-1-methyl-benzimidazol-2-yl]-2-methyl-3,16,22-triazatetracyclo[14.5.2.0^{5,10}.0^{19,23}] tricosa-1(22),5,7,9,17,19(23),20-heptaen-4-one]	46 nM
COc1cc(C(=O)N[C@H](C)CN)cc2nc(-c3cc4ccc5nc4n3CCCCC[C@@H]3CC3C(=O)N[C@@H]5C)n(C)c12 (stereo partly drawn) [Example 509, ~{N}-[(1~{R})-2-amino-1-methyl-ethyl]-7-methoxy-1-methyl-2-[(2~{R},7~{R})-2-methyl-4-oxo-3,13,19-triazatetracyclo[11.5.2.0^ {5,7}.0^{16,20}]icosa-1(19),14,16(20),17-tetraen-14-yl]benzimidazole-5-carboxamide]	146 nM
COc1cc(C(=O)N2[C@H]3CC[C@@H]2[C@H](N)C3)cc2nc(-c3cc4ccc5nc4n3CC3(CC3)COCCC(=O)N[C@@H]5C)c(C)n12 [Example 329, (10~{R})-16-[7-[(1~{R},2~{R},4~{S})-2-amino-7-azabicyclo[2.2.1]heptane-7-carbonyl]-5-methoxy-3-methyl-imidazo[1,2-a]pyridin-2-yl]-10-methyl-spiro[5-oxa-1,9,18-triazatricyclo[9.5.2.0^{14,17}]octadeca-11(18),12,14(17),15-tetraene-3,1′-cyclopropane]-8-one]	48 nM
COc1cc(C(=O)N2CCC[C@@H](N)C2)cc2nc(-c3cc4ccc5nc4n3CCC/C=C/C[C@](C)(C(F)(F)F)C(=O)N[C@@H]5C)n(C)c12 (single isomer, unassigned) [Example 3, (5˜{E},8˜{S},11˜{R})-17-[5-[(3˜{R})-3-aminopiperidine-1-carbonyl]-7-methoxy-1-methyl-benzimidazol-2-yl]-8,11-dimethyl-8-(trifluoromethyl)-1,10,19-triazatricyclo[10.5.2.0^{15,18}]nonadeca-5,12(19),13,15(18),16-pentaen-9-one]	110 nM
COc1cc(C(=O)N2CC[C@@H](OC)[C@@H](N)C2)cc2nc(-c3cc4ccc5c(F)c4n3CCCCCCC(C)(C)C(=O)N[C@@H]5C)n(C)c12 [Example 643, (11~{R})-17-[5-[(3~{S}, 4~{R})-3-amino-4-methoxy-piperidine-1-carbonyl]-7-methoxy-1-methyl-benzimidazol-2-yl]-19-fluoro-8,8,11-trimethyl-1,10-diazatricyclo[10.5.2.0^ {15,18}]nonadeca-12(19),13,15(18),16-tetraen-9-one]	54 nM
C[C@H]1NC(=O)[C@H]2[C@@H](CCCCCn3c(-c4nc5cc(C(=O)N[C@H]6CNCC[C@@H]6F)c(F)cc5n4C4CC4)cc4ccc1nc43)C2(F)F [Example 392, 1-cyclopropyl-2-[(2~{R},5~{R},7~{R})-6,6-difluoro-2-methyl-4-oxo-3,13,19-triazatetracyclo[11.5.2.0^{5,7}.0^{16,20}]icosa-1(19),14,16(20),17-tetraen-14-yl]-6-fluoro-~{N}-[(3~{S},4~{S})-4-fluoro-3-piperidyl]benzimidazole-5-carboxamide]	22 nM
C[C@H]1NC(=O)[C@@H]2C[C@H]2CCCCCn2c(-c3nc4cc(C(=O)N[C@H]5CNCC[C@@H]5F)c(F)cc4n3[C@H]3C[C@@H]3C)cc3ccc1nc32 [Example 413, 6-fluoro-˜{N}-[(3˜{S},4˜{S})-4-fluoro-3-piperidyl]-1-[(1˜{S},2˜{S})-2-methylcyclopropyl]-2-[(2˜{R},5˜{R},7˜{R})-2-methyl-4-oxo-3,13,19-triazatetracyclo[11.5.2.0^{5,7}.0^{16,20}]icosa-1(19),14,16(20),17-tetraen-14-yl]benzimidazole-5-carboxamide]	37 nM
C[C@H]1NC(=O)[C@H]2[C@H](CCCC(F)(F)Cn3c(-c4nc5cc(C(=O)N[C@H]6CNCC[C@@H]6F)c(F)cc5n4C)cc4ccc1nc43)C2(F)F [Example 378, 6-fluoro-~{N}-[(3~{S},4~{S})-4-fluoro-3-piperidyl]-1-methyl-2-[(2~{R},5~{R},7~{S})-6,6,11,11-tetrafluoro-2-methyl-4-oxo-3,13,19-triazatetracyclo[11.5.2.0^{5,7}.0^{16,20}]icosa-1(19),14,16(20),17-tetraen-14-yl]benzimidazole-5-carboxamide]	41 nM
C[C@H]1NC(=O)[C@H]2[C@H](CCCC(F)(F)Cn3c(-c4nc5cc(C(=O)N[C@H]6CNCC[C@@H]6F)c(F)cc5n4C4CC4)cc4ccc1nc43)C2(F)F [Example 391, 1-cyclopropyl-6-fluoro-~{N}-[(3~{S},4~{S})-4-fluoro-3-piperidyl]-2-[(2~{R},5~{R},7~{S})-6,6,11,11-tetrafluoro-2-methyl-4-oxo-3,13,19-triazatetracyclo[11.5.2.0^{5,7}.0^{16,20}]icosa-1(19),14,16(20),17-tetraen-14-yl]benzimidazole-5-carboxamide]	34 nM
COc1cc(C(=O)N2[C@H]3CC[C@@H]2[C@H](N)C3)cc2nc(-c3cc4ccc5nc4n3CCCCCCC(=O)Nc3cnccc3-5)n(C)c12 [Example 95, 17-[5-[(1~{R},2~{R},4~{S})-2-amino-7-azabicyclo[2.2.1]heptane-7-carbonyl]-7-methoxy-1-methyl-benzimidazol-2-yl]-5,8,16,22-tetrazatetracyclo[14.5.2.0^{2,7}.0^{19,23}] tricosa-1(22),2,4,6,17,19(23),20-heptaen-9-one]	86 nM

Results, then the compound that gave them:

IC50	SMILES
53 nM	COc1cc(C(=O)N2CC[C@@H](OC)[C@@H](N)C2)cc2nc(-c3cc4ccc5nc4n3CCCCCc3ccc(Cl)nc3C(=O)N[C@@H]5C)n(C)c12 [Example 780, (2~{R})-17-[5-[(3~{S},4~{R})-3-amino-4-methoxy-piperidine-1-carbonyl]-7-methoxy-1-methyl-benzimidazol-2-yl]-7-chloro-2-methyl-3,6,16,22-tetrazatetracyclo[14.5.2.0^ {5,10).0^{19,23}]tricosa-1(21),5(10),6,8,17,19,22-heptaen-4-one]
101 nM	COc1cc(C(=O)N2C[C@H](N)[C@@H]3CC[C@H]2C3)cc2nc(-c3cc4ccc5nc4n3CCCCCOC3(CC3)C(=O)N[C@@H]5C)n(C3CC3)c12 [Example 904, (11~{R})-17-[5-[(1~{S),4~{R}, 5~{R})-4-amino-2-azabicyclo [3.2.1]octane-2-carbonyl]-1-cyclopropyl-7-methoxy-benzimidazol-2-yl]-11-methyl-spiro[7-oxa-1,10,19-triazatricyclo[10.5.2.0^{15,18}]nonadeca-12(19), 13,15(18),16-tetraene-8,1′-cyclopropane]-9-one]
58 nM	COc1cc(C(=O)N2C[C@H](N)[C@@H]3CC[C@H]2C3)cc2nc(-c3cc4ccc5nc4n3CCCCCc3nc(Cl)ccc3C(=O)NC5(C)C)n(C)c12 [Example 932, 17-[5-[(1~{S},4~{R},5~{R})-4-amino-2-azabicyclo[3.2.1]octane-2-carbonyl]-7-methoxy-1-methyl-benzimidazol-2-yl]-8-chloro-2,2-dimethyl-3,9,16,22-tetrazatetracyclo[14.5.2.0^ {5,10}.0^{19,23}]tricosa-1(21),5(10),6,8,17,19,22-heptaen-4-one]
15 nM	COc1cc(C(=O)N2C[C@H](N)CC[C@@H]2C)cc2nc(-c3cc4ccc5nc4n3CC(F)(F)CCC[C@@H]3C[C@H]3C(=O)N[C@@H]5C)n(C)c12 [Example 849, (2~{R},5~{R},7~{R})-14-[5-[(2~{S},5~{R})-5-amino-2-methyl-piperidine-1-carbonyl]-7-methoxy-1-methyl-benzimidazol-2-yl]-11,11-difluoro-2-methyl-3,13,19-triazatetracyclo[11.5.2.0^ {5,7}.0^{16,20}]icosa-1(19), 14,16(20),17-tetraen-4-one]
29 nM	COc1cc(C(=O)N2C[C@H](N)[C@@H]3CC[C@H]2C3)cc2nc(-c3cc4ccc5nc4n3CCCCCc3cc(F)cc(F)c3C(=O)N[C@@H]5C)n(C)c12 [Example 935, (2~{R})-17-[5-[(1~{S),4~{R},5~ {R})-4-amino-2-azabicyclo[3.2.1]octane-2-carbonyl]-7-methoxy-1-methyl-benzimidazol-2-yl]-6,8-difluoro-2-methyl-3,16,22-triazatetracyclo[14.5.2.0^ {5,10}.0^{19,23}]tricosa-1(21),5(10),6,8,17,19,22-heptaen-4-one]
52 nM	COc1cc(C(=O)N2C[C@H](N)[C@@H]3CC[C@H]2C3)cc2nc(-c3cc4ccc5nc4n3CCCCCOC(C)(C)C(=O)N[C@@H]5C)n(C)c12 [Example 909, (11~{R})-17-[5-[(1~{S},4~{R), 5~{R})-4-amino-2-azabicyclo [3.2.1]octane-2-carbonyl]-7-methoxy-1-methyl-benzimidazol-2-yl]-8,8,11-trimethyl-7-oxa-1,10,19-triazatricyclo[10.5.2.0^{15,18}] nonadeca-12(19), 13,15(18),16-tetraen-9-one]
39 nM	C[C@H]1NC(=O)[C@H]2C[C@@H]2CC(F)(F)CCCn2c(-c3nc4cc(C(=O)N5C[C@H](N)[C@@H]6CC[C@H]5C6)cc(F)c4n3C3CC3)cc3ccc1nc32 [Example 880, (2~{R},5~{S},7~{R})-14-[5-[(1~{S},4~{R},5~{R})-4-amino-2-azabicyclo[3.2.1]octane-2-carbonyl]-1-cyclopropyl-7-fluoro-benzimidazol-2-yl]-9,9-difluoro-2-methyl-3,13,19-triazatetracyclo [11.5.2.0^{5,7}.0^{16,20}] icosa-1(19),14,16(20), 17-tetraen-4-one]
